Results from patent publication US20240307339A1, “NOVEL COMPOUNDS FOR THE TREATMENT AND PREVENTION OF NEUROLOGICAL COMPLICATIONS OF VIRAL INFECTIONS” (Sunregen Healthcare AG, priority 2021, published 2024).

Assays:
[1] = system: Mouse hepatitis virus (MHV); assay: mouse model of coronavirus infection (MHV infected mice); format: in vivo, C57BL/6J male mice; conditions: vs vehicle; for clinical score / clinical severity of virus induced neuropathology: 50 mg/kg, treatment started 3 days after virus infection till Day 21, P<0.05 on days 9, 10 or 14
Description: Tripentadecanoin was tested in a mouse model of coronavirus infection. The objective of this study was to investigate tripentadecanoin's therapeutic effects in MHV infected mice. Mouse hepatitis virus (MHV) causes acute infections of the murine liver and lungs and persistent infections of the gastrointestinal tract and central nervous system (CNS). […] This virus was named JHM virus (JHMV) and subsequently shown to be a coronavirus, related to other MHV strains (Bergmann, C., Lane, T. & Stohlman, S. Coronavirus infection of the central nervous system: host-virus stand-off. Nat Rev Microbiol 2006; 4:121-132.). JMHV is now broadly used to study virus-induced neurological diseases, particularly demyelination. It is considered to be a suitable model for coronavirus-induced neurological complication. CNS infection with MHV provides an animal model for acute viral-induced encephalomyelitis and the human demyelinating disease, multiple sclerosis. MHV-induced demyelinating disease is typified by mice, which control viral replication, but fail to fully clear virus. Acute infection induces CNS inflammation and initiates the demyelinating process. Animals that fail to control virus replication in a sufficiently rapid manner succumb to encephalomyelitis within 5-10 days. Survivors of acute infection typically eliminate infectious virus within two weeks. However, these animals still fail to achieve sterile immunity as evidenced by the persisting viral antigen (Ag) and RNA within the CNS. MHV persistence is associated with chronic CNS inflammation and ongoing primary demyelination.
20 C57BL/6J male mice of at 5 weeks of age were randomized into 2 groups of vehicle control or tripentadecanoin 50 mg/kg. Tripentadecanoin or vehicle control treatment was started 3 days after virus infection for a total of 19 days till Day 21. Clinical score of MHV infected mice was rated as: 0—asymptomatic; 1—limp tail; 2—wobbly gait with righting difficulty; 3—hind limb weakness and extreme righting difficulty; 4—hind limb paralysis; 5—moribund.

[2] = system: NMU-induced photoreceptor degeneration (retina); assay: murine model of N-nitroso-N-methylurea (NMU) photoreceptor degeneration; format: in vivo, C57BL/6J mice; conditions: for outer nuclear layer (ONL) area under the curve (AUC -1.75 to +1.75 μm): H&E histology; for number of rows of photoreceptor nuclei: mid-peripheral region
Description: Eighteen 8-12-week-old female C57BL/6J mice were randomized into three groups: 1) NMU+vehicle; 2) NMU+Tripentadecanoin 20 mg/kg; 3) NMU+Tripentadecanoin 50 mg/kg. NMU at a dose of 50 mg/kg was injected i.p. to all mice; Tripentadecanoin (or vehicle) was administered daily via oral gavage starting 3 days before NMU and continuing until 7 days after NMU challenge. Retina were imaged by spectral domain optical coherence tomography (OCT) 5 days before exposing to NMU and 7 days after NMU. All eyes were collected and processed for histological hematoxylin and eosin (H&E) staining. The thicknesses of photoreceptors were measured from different locations on OCT images and H&E slides, respectively. Photoreceptor thickness on H&E slides were quantified using automated Leica software (Leica, Heerbrugg), operated by a single masked observer. Results were expressed as the outer nuclear layer (ONL) area under the curve (AUC −1.75 to +1.75 μm) and number of rows of photoreceptor nuclei.

[3] = system: Hsp104-GFP age-induced protein deposit; assay: Hsp104-GFP age-induced protein deposit in old yeast cells (replicative ageing); format: cell-based, Saccharomyces cerevisiae; conditions: for proportion of cells with an Hsp104-GFP focus / proportion of cells with an Hsp104-GFP focus decreased: 30 μM
From the text: While yeast populations can be propagated ad libitum, the yeast mother cell has a finite lifespan and can only produce a certain amount of daughter cells, typically 25 for laboratory backgrounds. Mortality rate increases with the number of daughter cells produced, therefore this phenomenon is termed replicative ageing. In old yeast cells, age-induced protein deposits recruit a specific set of chaperones and co-chaperones.
Hsp104 expressed endogenously as a fusion to the green fluorescent protein tag (Hsp104-GFP) forms a focus in old cells. The presence (percentage of cells with an aggregate at a certain age), number (number of foci per cell) and size (fluorescent brightness) can be assessed on hundreds of cells and thus, this gives a good model for assessing the biology of age induced aggregates.
To test if tripentadecanoin is active in yeast, cells were treated with different concentrations of the purified compound (1 μM, 10 μM and 30 μM) as well as an extract (10 μg/ml) of the plant it is derived from (Ophioglossum thermale). These cells were let to age in the presence of the compound and after 10-11 generations, cells were imaged to count their age and assess whether they contained a Hsp104-GFP age-induced protein deposit or not (FIG. 3A).
(§1) Potential targets of the compound of formula (I) were identified by using RNAseq. The yeast cells (Saccharomyces cerevisiae) were treated with tripentadecanoin (30 μM) for 5 hours and the mRNA abundance of all genes in cells that were treated with the compound or vehicle only for 5 hours was quantitatively monitored. Samples in triplicate were processed by the company Genewiz. […] Among these hits is Yhb1, a flavohemoglobin that plays a role in nitrosative stress response (FIG. 4A). Following the results from the RNAseq survey, PH084, YHB1 or VTC4 were knocked out and the proportion of old cells with an Hsp104-GFP focus was measured, as before. While pho84Δ cells were similar to wild type cells, much more vtc4Δ and yhb1Δ mutant cells contained an age-induced deposit (FIG. 4A).

[4] = system: YHB1 (yeast homologue of neuroglobin) mRNA; assay: RNAseq of yeast cells treated with tripentadecanoin; format: cell-based, Saccharomyces cerevisiae
Description: as §1

neuroglobin mRNA = assay: Expression of neuroglobin in mouse primary cortical neurons (qPCR); format: cell-based, C57BL/6J mouse
Description: Healthy neurons preparation: primary mouse cortical neurons from embryonic day 16-17 were prepared from C57BL/6J mouse foetuses, resulting in 95-97% of neurons and 3-5% astrocytes. At DIV 5/6, mouse primary cortical neurons was treated for 3 h (T3) or 24 h (T24) with vehicle (ethanol) or increasing concentrations of tripentadecanoin (100 or 1000 nM). q PCRmethods used to amplify the mRNA of neuroglobin.
The amount and quality of RNA were evaluated using capillary electrophoresis. The complementary DNA (cDNA) was synthesized by reverse transcription of total RNA in presence of oligo(dT) and “Transcriptor reverse transcriptase” from Roche. The cDNA quantities were then adjusted before the PCRstep. The qPCRreactions were performed using the Licht Cycler system from Roche according to supplier instructions. In this experiment, Rps28 (Ribosomal protein S28) was used as a reference marker (also referred to as housekeeping gene).
The reaction mix (10 μL final) was prepared as follows: • 2.5 μL cDNA • Primers and TaqMan probe • Reagent mix containing taq DNA polymerase and MgCl2.
The following primers were used in this experiment: […]

Compound: CCCCCCCCCCCCCCC(=O)OCC(COC(=O)CCCCCCCCCCCCCC)OC(=O)CCCCCCCCCCCCCC [tripentadecanoin]
- clinical score / clinical severity of virus induced neuropathology [1]: reducing the clinical severity of virus induced neuropathology
- clinical score / clinical severity of virus induced neuropathology ([1]; listed as compound of the formula (I)): improved clinical score
- weight loss of animals ([1]; mouse model of coronavirus infection): reduced weight loss of animals
- outer nuclear layer (ONL) area under the curve (AUC -1.75 to +1.75 μm) ([2]; 20 mg/kg daily oral gavage, p<0.01 vs vehicle): 73.58±14.45
- number of rows of photoreceptor nuclei ([2]; 20 mg/kg, p<0.01 vs vehicle): 6.4±1.2
- outer nuclear layer (ONL) area under the curve (AUC -1.75 to +1.75 μm) ([2]; 50 mg/kg daily oral gavage, p<0.001 vs vehicle): 83.08±19.05
- number of rows of photoreceptor nuclei ([2]; 50 mg/kg, p<0.001 vs vehicle): 7.0±1.7
- neuroretinal thickness (OCT) ([2]; 50 mg/kg, peripheral (p<0.05), mid-peripheral (p<0.05) and central retina (p<0.01) vs vehicle): significantly increased
- thickness of photoreceptor layers (in vivo OCT images) ([2]; OCT 7 days after NMU, vs control): increased thickness of photoreceptor layers
- cells containing a Hsp104-GFP age-induced protein deposit (focus) ([3]; 1 μM, 10 μM and 30 μM, after 10-11 generations, vs vehicle 0.3% ethanol): less likely to harbor a Hsp104-GFP focus
- proportion of cells with an Hsp104-GFP focus ([3]; pho84Δ cells): decreased
- proportion of cells with an Hsp104-GFP focus decreased ([3]; vtc4Δ mutant cells): this was not the case
- proportion of cells with an Hsp104-GFP focus ([3]; wild type cells): decreased
- aggregation of HSP-104 (GFP-HSP104 loci) ([3]; yeast cells, summary statement): greatly reduced
- proportion of cells with an Hsp104-GFP focus decreased ([3]; yhb1Δ mutant cells): this was not the case
- mRNAs significantly differentially expressed vs vehicle ([4]; 30 μM, 5 hours, RNAseq, triplicate): 157
- expression of YHB1 ([4]; yeast cells treated with tripentadecanoin): significantly increased
- expression of neuroglobin vs vehicle control (neuroglobin mRNA; 1000 nM, 3 hours, p<0.001): significant increased expression of neuroglobin
- increase in the expression level of neuroglobin (neuroglobin mRNA; mouse neurons, Example 4): approximately six-fold
